Assay results published in patent publication US12648942B2, “Method for treating acute ischemic stroke” (Lumosa Therapeutics Co., LTD, priority 2021, dated 2026).

Key:
[1] = test system: embolic occlusion of the middle cerebral artery in male Sprague-Dawley rats; assay: Embolic stroke model in SD rat (Examples 1, 4-6); type: in vivo, Sprague-Dawley rat; conditions: for Mean neurological deficit scores (NDS): 24 hours after drug administration
Description: A 10% chloral hydrate solution (400 mg/kg) was injected intraperitoneally into SD male rats (240-320 g) for anesthesia. A vertical incision of about 2 cm in length was made on the right side near the center of the neck, and the right common carotid artery (CCA), external carotid artery (ECA) and internal carotid artery (ICA) were separated along the margin of the inner side of sternocleidomastoid muscles. The incision at the internal carotid artery and the proximal end of the common carotid artery were clipped respectively with noninvasive arterial clips. A small incision was made on the external carotid artery, and the distal end of the external carotid artery was ligated. The arterial clip at the proximal end of the common carotid artery was released, and 10 μl blood was drawn. After blood was drawn, the proximal end of the common carotid artery was again clipped with a noninvasive arterial clip. The 10 μl blood drawn was placed in a 1 mL EP vial and kept at RT for 30 min to allow the coagulation of blood and then transferred into a −20° C. refrigerator for 1 hour to allow the formation of solid coagulation. 1 hour later, the blood clots were taken out, 1 mL normal saline was added therein, and then the blood clots were broken into relatively uniform microthrombus by a steel spatula. The microthrombus suspension was then transferred into a 1 mL injector for use. When the clip on the internal carotid artery of the rat was released, the 1 mL thrombus suspension in the injector was slowly injected from the external carotid artery of the rat to its proximal end, and then was injected into the brain of the rat through the internal carotid artery. Subsequently, the proximal end of the external carotid artery was ligated, the arterial clips on the internal carotid artery and the common carotid artery were released, and blood flow was restored. The common jugular vein was separated, and then injected with normal saline solution, or tested compound. The vein was ligated. 3 drops of penicillin was dropped on the wound. The wound was sewed, and animals were waited for awake.
24 hours after the rats were awake, the degree of damage in neural function was evaluated by the Zealonga method. A score of 0 indicated no sign of loss in neural function, 1 indicated the front limbs on the undamaged side could not stretch out, 2 indicated walking toward the undamaged side, 3 indicated tail-chasing walking in circles toward the undamaged side, 4 indicated involuntary walking with disturbance of consciousness, and 5 indicated death. The evaluation results were statistically analyzed and subjected to t-test.
After the rats were awake for 24 hours and assessed for their degree of damage in neural function by Zealonga method, they were anesthetized with urethane followed by immediate decapitation and removal of the brain. Brain tissues were kept in a −20° C. refrigerator for 2 hours, and coronal sections of about 2 mm were successively sliced from the prefrontal end for a total of 5 sections and then placed into a 2% TTC solution to incubate without light at 37° C. for 30 min. The color change in brain sections was observed: normal brain tissues were stained red by TTC, while ischemic brain tissues appeared in white. Photographs were taken by using a digital camera and processed with image statistics software, and the volume of infarction in brain tissues and the area of normal brain tissues in the coronal sections were calculated. The ratio of the cerebral infarction volume of each group was statistically calculated and subject to t-test.
An embolic occlusion of the middle cerebral artery in male Sprague-Dawley rats was induced by introducing blood clots into the carotid artery. Rats were treated with vehicle (saline), rtPA (10 mg/kg, IV bolus injection), or DC009 (0.007 mg/kg, IV bolus injection) after 3 hours of stroke onset (n=12-13 per treatment group). […]

[2] = test system: photochemically induced thrombosis of the middle cerebral artery in rats; assay: Photochemically induced thrombotic (PIT) stroke model in rats (Examples 3, 10); type: in vivo, rat; conditions: 24 hours after PIT surgery
Description: Under anesthesia, the left middle cerebral artery (MCA) was occluded by a thrombus generated at the site of photoirradiation. The left MCA was exposed via a transorbital approach. A vertical incision was made between the left orbital and the external auditory canal. The temporal muscle was reflected and a subtemporal craniotomy was performed without removing the zygomatic arch. A window of approximately 3 mm in diameter was opened at the base of the skull. The main trunk of the left MCA was visible through the window. Endothelial cells in the MCA were focally injured by a photochemical reaction between rose bengal and green illumination (X540 nm, 600,000 Lux). Rose bengal (20 mg/kg) was intravenously dose and then the MCA was exposed to green light for a period of 10 min. During surgery, animals were placed on a heating pad set at 38 C.
Twenty-four hours (±2 hrs.) after thromboembolism, and once daily for the next five days, neurologic deficits were scored according to a modified method described by Ederson et al. (Stroke, 1986, 17: 472-476). A total of “0” indicates no deficit whereas a maximal score of “15” indicates severe deficits.
Each brain was cut into six coronal blocks with a rat brain matrix (2 mm interval). Brains were post-fixed overnight in 4% paraformaldehyde at 3.1-6.2° C., stored in phosphate-buffered saline and sent out for histological processing. Each coronal block was embedded in paraffin. One coronal section from each block was taken and stained with hematoxylin and eosin (HE).
From the HE-stained sections, the infarct areas (mm^2) were manually marked using OsiriX version 8.0.2 (Pixmeo SARL, Bernex, Switzerland). The volume of ischemic infarction (mm^3) was calculated as the […] (six coronal sections per brain). Infarct volumes were calculated in cerebral cortex and basal ganglia. Total infarct volume was calculated by adding the infarct volumes of the basal ganglia and cerebral cortex.
Rats were treated with vehicle (saline), rtPA (10 mg/kg), DC009 (0.007 mg/kg, 15-minute IV infusion) after 1 hours of stroke onset, or DC009 (0.007 mg/kg, 15-minute IV infusion) after 3 hours of stroke onset. (n=10 per treatment group). At 24 hours after drug administration, rats were assessed with a neurological deficit scale (NDS).
24 hours after PIT surgery, rats were euthanized, and brains were processed for […].

[3] = DC009 0.007 mg/kg, 15-minute IV infusion, 1 hr post-PIT
[4] = DC009 0.007 mg/kg, 15-minute IV infusion, 3 hr post-PIT

Molecule | infarct volumes (% hemisphere) ([1]; DC009 0.0007 mg/kg IV bolus from 24 hours after stroke onset, once daily for 6 days, 7 days after stroke) | effective dose in the rat Embolic Stroke Model ([1]; data from Example 4-6) [µg/kg] | infarction volume, Basal ganglia [2, 3] | infarction volume, Cerebral cortex [2, 3] [mm^3] | infarction volume, Basal ganglia [2, 4] [mm^3] | infarction volume, Cerebral cortex [2, 4] [mm^3] | infarction volume, Total [2, 4] [mm^3] | Mean neurological deficit scores (NDS) ([1]; rtPA 3 mg/kg IV bolus 6 hours after stroke onset, 6-point scale) | infarct volumes (% hemisphere) ([1]; rtPA 3 mg/kg IV bolus 6 hours after stroke onset, 24 hours, TTC) | Mean neurological deficit scores (NDS) ([1]; rtPA 10 mg/kg IV bolus 3 hours after stroke onset, scale 0-5) | infarct volumes (% hemisphere) ([1]; rtPA 10 mg/kg IV bolus 3 hours after stroke onset, 24 hours, TTC) | infarction volume, Basal ganglia ([2]; rtPA 10 mg/kg, 1 hr post-PIT) [mm^3] | infarction volume, Cerebral cortex ([2]; rtPA 10 mg/kg, 1 hr post-PIT) [mm^3] | infarction volume, Basal ganglia ([2]; rtPA 10 mg/kg, 3 hr post-PIT) [mm^3] | infarction volume, Cerebral cortex ([2]; rtPA 10 mg/kg, 3 hr post-PIT) | infarction volume, Total ([2]; rtPA 10 mg/kg, 3 hr post-PIT)
CC(NC(=O)C1CCCN1)C(=O)NC(CCCCN)C(=O)NCCCCC(NC(=O)C1Cc2cc(O)c(O)cc2C(C)(C)N1)C(=O)O (stereo not drawn) [DC009, 3S-6,7-dihydroxy-1,1-dimethyl-1,2,3,4-tetrahydro-isoquinoline-3-acyl-Lys(Pro-Ala-Lys)] | 9.95 ± 10.32 | 7 to 70 | 63.7 ± 10.3 ** mm^3 | 210.6 ± 26.4 | 94.8 ± 6.2 | 227.7 ± 18.4 | 322.5 ± 23.0 | – | – | – | – | – | – | – | – | –
rtPA: Alteplase (Activase), a recombinant tissue-type plasminogen activator (rtPA) [reference compound] | – | – | – | – | – | – | – | 3.27 ± 1.85 | 17.90 ± 7.47 | 2.13 ± 1.173 | 12.74 ± 9.02 | 80.7 ± 4.3 | 200.0 ± 18.1 | 87.0 ± 7.0 | 173.5 ± 19.4 ** mm^3 | 260.6 ± 23.9 ** mm^3
